Article PMC9516332 (Frontiers in Oncology, 2022)
Like-named read-outs stand apart in the source and are kept apart here.

Key:
Assay in all cases: Kinase panel profiling at 1 µmol/L (MSA or IMAP), percentage inhibition
Assay type in all cases: biochemical
[1] = target: panel of 255 wild-type kinases (Homo sapiens, UniProt P06493); conditions: read-out: %-inhibition CDC2/CycB1
[2] = target: panel of 255 wild-type kinases (Homo sapiens, UniProt P35916); conditions: read-out: %-inhibition at 1 µmol/L, FLT4
[3] = target: panel of 255 wild-type kinases (Homo sapiens, UniProt P53355); conditions: read-out: %-inhibition at 1 µmol/L, DAPK1
[4] = target: T1, panel of 255 wild-type kinases (Homo sapiens, UniProt P43403); conditions: read-out: %-inhibition at 1 µmol/L, ZAP70
T1 sequence (P43403 1-619): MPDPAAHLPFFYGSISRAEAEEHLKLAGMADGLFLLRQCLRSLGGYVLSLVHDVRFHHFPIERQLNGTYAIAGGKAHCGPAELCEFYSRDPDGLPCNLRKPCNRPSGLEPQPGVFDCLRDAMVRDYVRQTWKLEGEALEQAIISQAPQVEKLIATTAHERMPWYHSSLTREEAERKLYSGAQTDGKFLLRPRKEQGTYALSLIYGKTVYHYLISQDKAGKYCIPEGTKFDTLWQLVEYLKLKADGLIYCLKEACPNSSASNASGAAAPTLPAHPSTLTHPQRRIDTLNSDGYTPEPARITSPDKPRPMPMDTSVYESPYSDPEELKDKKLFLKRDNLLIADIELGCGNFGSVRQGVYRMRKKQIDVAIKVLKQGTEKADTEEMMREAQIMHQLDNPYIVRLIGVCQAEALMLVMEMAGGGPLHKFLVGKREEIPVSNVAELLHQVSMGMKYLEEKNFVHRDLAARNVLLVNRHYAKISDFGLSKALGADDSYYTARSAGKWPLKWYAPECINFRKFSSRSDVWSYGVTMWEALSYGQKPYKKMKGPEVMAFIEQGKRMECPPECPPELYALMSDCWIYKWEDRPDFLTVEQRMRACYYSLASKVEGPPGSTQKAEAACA

[5] = target: T2, panel of 255 wild-type kinases (Homo sapiens, UniProt Q9BZL6); conditions: read-out: %-inhibition at 1 µmol/L, PKD2
T2 sequence (Q9BZL6 1-878): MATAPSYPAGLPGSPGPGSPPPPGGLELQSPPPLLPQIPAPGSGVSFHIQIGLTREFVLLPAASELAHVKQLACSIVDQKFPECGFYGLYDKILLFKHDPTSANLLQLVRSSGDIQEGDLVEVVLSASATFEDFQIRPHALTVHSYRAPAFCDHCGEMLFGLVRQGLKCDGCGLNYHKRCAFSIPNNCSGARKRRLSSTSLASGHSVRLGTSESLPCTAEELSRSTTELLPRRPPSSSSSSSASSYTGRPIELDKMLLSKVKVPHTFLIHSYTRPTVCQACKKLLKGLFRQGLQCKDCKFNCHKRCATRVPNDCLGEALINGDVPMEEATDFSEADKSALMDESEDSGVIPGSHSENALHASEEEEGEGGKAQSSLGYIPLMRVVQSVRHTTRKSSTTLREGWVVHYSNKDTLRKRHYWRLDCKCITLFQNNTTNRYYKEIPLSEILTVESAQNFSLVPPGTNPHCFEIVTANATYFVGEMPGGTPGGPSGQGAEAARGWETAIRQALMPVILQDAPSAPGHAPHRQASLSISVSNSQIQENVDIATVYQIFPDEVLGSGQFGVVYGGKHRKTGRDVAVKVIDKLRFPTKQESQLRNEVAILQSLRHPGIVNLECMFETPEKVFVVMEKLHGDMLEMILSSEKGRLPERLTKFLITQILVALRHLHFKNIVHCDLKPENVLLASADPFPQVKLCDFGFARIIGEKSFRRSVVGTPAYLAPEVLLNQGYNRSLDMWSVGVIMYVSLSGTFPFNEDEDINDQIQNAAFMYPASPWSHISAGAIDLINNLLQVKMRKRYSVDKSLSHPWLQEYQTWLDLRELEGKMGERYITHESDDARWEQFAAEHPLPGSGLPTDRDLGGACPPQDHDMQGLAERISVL

[6] = target: panel of 255 wild-type kinases (Homo sapiens, UniProt P35968); conditions: read-out: %-inhibition at 1 µmol/L, KDR
[7] = target: T3, panel of 255 wild-type kinases (Homo sapiens, UniProt O15530); conditions: read-out: %-inhibition at 1 µmol/L, PDK1
T3 sequence (O15530 1-556): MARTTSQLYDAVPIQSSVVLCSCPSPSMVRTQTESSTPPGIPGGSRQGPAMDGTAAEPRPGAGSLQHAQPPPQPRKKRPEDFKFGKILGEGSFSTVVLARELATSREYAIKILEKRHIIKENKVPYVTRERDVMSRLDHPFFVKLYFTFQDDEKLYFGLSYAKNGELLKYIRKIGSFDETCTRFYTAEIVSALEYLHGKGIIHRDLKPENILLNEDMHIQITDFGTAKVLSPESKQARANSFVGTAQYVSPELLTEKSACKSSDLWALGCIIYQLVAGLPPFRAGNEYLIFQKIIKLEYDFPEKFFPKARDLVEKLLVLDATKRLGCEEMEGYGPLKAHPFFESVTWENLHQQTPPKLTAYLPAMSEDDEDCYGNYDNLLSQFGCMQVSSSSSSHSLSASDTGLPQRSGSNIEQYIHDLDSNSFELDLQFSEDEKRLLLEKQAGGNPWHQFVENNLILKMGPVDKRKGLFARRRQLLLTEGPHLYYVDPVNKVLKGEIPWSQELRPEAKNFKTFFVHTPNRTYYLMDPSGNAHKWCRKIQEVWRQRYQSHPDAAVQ

[8] = target: panel of 255 wild-type kinases (Homo sapiens, UniProt P07949); conditions: read-out: %-inhibition at 1 µmol/L, RET
[9] = CDC2/CycB1 kinase assay, 1 µmol/L single concentration
[10] = kinase FLT4, 1 µmol/L single concentration
[11] = kinase DAPK1, 1 µmol/L single concentration
[12] = kinase ZAP70, 1 µmol/L single concentration
[13] = kinase PKD2, 1 µmol/L single concentration
[14] = kinase KDR, 1 µmol/L single concentration
[15] = kinase PDK1, 1 µmol/L single concentration
[16] = kinase RET, 1 µmol/L single concentration

Compound | inhibition at 1 µM [1, 9] [%] | inhibition at 1 µM [2, 10] [%] | inhibition at 1 µM [3, 11] [%] | inhibition at 1 µM [4, 12] [%] | inhibition at 1 µM [5, 13] [%] | inhibition at 1 µM [6, 14] [%] | inhibition at 1 µM [7, 15] [%] | inhibition at 1 µM [8, 16] [%] | inhibition at 1 µM [1] [%] | inhibition at 1 µM [2] [%] | inhibition at 1 µM [3] [%] | inhibition at 1 µM [4] [%] | inhibition at 1 µM [5] [%] | inhibition at 1 µM [6] [%] | inhibition at 1 µM [7] [%] | inhibition at 1 µM [8] [%]
Cc1nc(NC(=O)N2CCC[C@H]2C(N)=O)sc1-c1ccnc(C(C)(C)C(F)(F)F)c1 [alpelisib] | -3.48 | 5 | -3 | 1.11 | -20 | 8 | -0.422 | 1.62 | – | – | – | – | – | – | – | –
Cn1cc(-c2cc3c(N4CCN(c5ncc([C@@](C)(N)c6ccc(F)cc6)cn5)CC4)ncnn3c2)cn1 [avapritinib] | 3 | 88 | 0.0958 | 13 | -0.865 | 71 | 6.57 | 96 | – | – | – | – | – | – | – | –
Cn1cnc2c(F)c(Nc3ccc(Br)cc3F)c(C(=O)NOCCO)cc21 [binimetinib] | 2.36 | 3.37 | 1.69 | -1.09 | -7 | 15 | 0.386 | -6 | – | – | – | – | – | – | – | –
CNC(=O)c1ccc(-c2cnc3ncc(Cc4ccc5ncccc5c4)n3n2)cc1F [capmatinib] | – | – | – | – | – | – | – | – | 2 | 10 | -2.82 | 4 | -7.47 | 4 | 4 | 11
COc1cc2ncnc(Nc3ccc(F)c(Cl)c3)c2cc1NC(=O)/C=C/CN1CCCCC1 [dacomitinib] | -6 | 34 | -7 | -4 | 10 | 42 | -7 | 40 | – | – | – | – | – | – | – | –
C[C@H](Nc1ncnc2nc[nH]c12)c1cc2cccc(Cl)c2c(=O)n1-c1ccccc1 [duvelisib] | -0.937 | 0.523 | -3.23 | 2 | -12 | 11 | 2.42 | 8 | – | – | – | – | – | – | – | –
COC(=O)N[C@@H](C)CNc1nccc(-c2cn(C(C)C)nc2-c2cc(Cl)cc(NS(C)(=O)=O)c2F)n1 [encorafenib] | 8 | 17 | -1 | 0.195 | 2.49 | 22 | -2.17 | -10 | – | – | – | – | – | – | – | –
CN1CCN(c2ccc(C(=O)Nc3n[nH]c4ccc(Cc5cc(F)cc(F)c5)cc34)c(NC3CCOCC3)c2)CC1 [entrectinib] | 3.63 | – | 16 | 2.19 | -24 | – | 0.207 | – | – | – | – | – | – | – | – | –
CCc1nc(C(N)=O)c(Nc2ccc(N3CCC(N4CCN(C)CC4)CC3)c(OC)c2)nc1NC1CCOCC1 [gilteritinib] | 26 | 99 | 71 | 46 | 56 | 104 | -1.87 | 100 | – | – | – | – | – | – | – | –
CCN1CCN(c2ccc(Nc3cc(N(C)C(=O)Nc4c(Cl)c(OC)cc(OC)c4Cl)ncn3)cc2)CC1 [infigratinib] | -9 | 92 | -3 | -2.77 | -4.21 | 92 | 1.36 | – | – | – | – | – | – | – | – | –
O=C(Nc1cnn2ccc(N3CCC[C@@H]3c3cc(F)ccc3F)nc12)N1CC[C@H](O)C1 [larotrectinib] | -7 | -1 | -4 | 4.69 | -6 | 6 | 2.15 | 1.71 | – | – | – | – | – | – | – | –
C[C@H]1Oc2cc(cnc2N)-c2c(nn(C)c2C#N)CN(C)C(=O)c2ccc(F)cc21 [lorlatinib] | 3.16 | 5 | 6.55 | 6 | -11 | 7 | 0.602 | 10 | – | – | – | – | – | – | – | –
CCN1C(=O)N(c2c(F)c(OC)cc(OC)c2F)Cc2cnc3[nH]c(CN4CCOCC4)cc3c21 [pemigatinib] | 10 | 99 | -4.25 | 2 | 4.44 | – | 0.293 | 55 | – | – | – | – | – | 96 | – | –
FC(F)(F)c1ccc(CNc2ccc(Cc3c[nH]c4ncc(Cl)cc34)cn2)cn1 [pexidartinib] | 32 | 66 | -9 | -7 | -5 | 81 | -4.67 | 88 | – | – | – | – | – | – | – | –
CO[C@]1(C(=O)N[C@@H](C)c2ccc(-n3cc(F)cn3)nc2)CC[C@H](c2nc(C)cc(Nc3cc(C)[nH]n3)n2)CC1 [pralsetinib] | 15 | 99 | 53 | 9 | -9 | 95 | 9 | 99 | – | – | – | – | – | – | – | –
CCn1c(=O)c(-c2cc(NC(=O)Nc3ccccc3)c(F)cc2Br)cc2cnc(NC)cc21 [ripretinib] | -5.56 | 93 | -10 | -8 | 13 | 111 | -7 | 94 | – | – | – | – | – | – | – | –
